Positions of bridges follow the written chain, without caps; N, C: chain ends. Non-standard residues stand in square brackets, D forms with d. Residues, ends and D or L forms follow the SMILES beside them. *: point of attachment. Ileψ(thiazoline)Cys = CC[C@H](C)[C@H](N)C1=N[C@H](C(=O)*)CS1; dOrn = NCCC[C@@H](N)C(=O)O
Experiments:
resident flora = conditions: infants, after treatment with the antibiotic (Brook, 2000); cited from earlier work
[1] = test system: Staphylococcus aureus (DSM346); experiment: in-vitro-hole plate assay, growth inhibition of S. aureus in comparison to bacitracin and erythromycin; assay type: cell-based; conditions: pre-cutted holes, BHI plates; antibiotics at different concentrations, defined numbers of Lactobacillus cells
Procedure: The term “microorganisms of the pathogenic transient micro flora” has been described herein above. Preferably, the term relates to Staphylococcus aureus. […] This effect has been compared to commercial antibiotic cream preparations of bacitracin and erythromycin. […] The diameter of the inhibition zones has been measured and the area of inhibition has been calculated thereof. […] Lactic acid bacteria were cultivated (OB-LB-Sa3; DSM 18006) from a −80° C. freezing culture in 1 ml MRS broth in eppendorf tubes. Tubes were closed and cultivated for 2 days at 37° C. 10 μl of this pre culture was transferred to the main culture consisting of 7 ml MRS broth in falcon tubes. The culture was incubated for 2 days. After cultivation cells were harvested by centrifugation (15 min, 4000×g). The cell pellet was washed two times with K/Na-buffer (each 1 ml). Cells were resuspended in 200 μl K/Na buffer. The indicator strain was Staphylococcus aureus (DSM346). 20 ml BHI broth in a shaking glass flask were inoculated with 15 μl of a 24 h pre culture. The indicator strain was cultivated for 24 h at 37° C. An aliquot was diluted to an optical density OD595 nm of 0.025-0.05 in BHI-broth and 800 μl spread on indicator plates (BHI). The agar was stamped using a cork borer. The holes were filled with 5 μl or 10 μl of the pre cultured lactic acid bacteria or corresponding volumes of commercial antibiotic preparations.

Row | Compound | repression of the resident flora (resident flora) | growth inhibition of S. aureus (inhibition zone, area of inhibition) [1]
1 | CC1(C)S[C@@H]2[C@H](NC(=O)[C@H](N)c3ccc(O)cc3)C(=O)N2[C@H]1C(=O)O [amoxicillin] | about 50% | 
2 | CC[C@H](C)[C@H](N)C1=N[C@H](C(=O)N[C@@H](CC(C)C)C(=O)N[C@H](CCC(=O)O)C(=O)N[C@H](C(=O)N[C@H]2CCCCNC(=O)[C@H](CC(N)=O)NC(=O)[C@@H](CC(=O)O)NC(=O)[C@H](Cc3cnc[nH]3)NC(=O)[C@@H](Cc3ccccc3)NC(=O)[C@H]([C@@H](C)CC)NC(=O)[C@@H](CCCN)NC2=O)[C@@H](C)CC)CS1 [bacitracin] ({Ileψ(thiazoline)Cys}-L[dE]IK[dOrn]I[dF]H[dD]N; lactam 4-C) |  | growth inhibition
3 | CC[C@H]1OC(=O)[C@H](C)[C@@H](O[C@H]2C[C@@](C)(OC)[C@@H](O)[C@H](C)O2)[C@H](C)[C@@H](O[C@@H]2O[C@H](C)C[C@H](N(C)C)[C@H]2O)[C@](C)(O)C[C@@H](C)C(=O)[C@H](C)[C@@H](O)[C@]1(C)O [erythromycin] |  | growth inhibition
4 | Lactobacillus delbrückii ssp. delbrückii OB-LB-Sa3 |  | growth inhibition
